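Cells were grown in 96-well plates and exposed to each compound for 48 hours at five concentrations; endpoints were interpolated linearly between bracketing concentrations, or set to the highest concentration if not reached. Abbreviation: GI50, concentration required for 50% inhibition of growth.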 Active and inactive are the calls of the source. Cut-off read from the data, not from the text of the source: active = GI50 up to about 1.1 µM and inactive = higher.
Legend:
Assay in all cases: inhibition of tumour cell growth, NCI panel, 48 h
[1] = system: 786-0
[2] = system: A549
[3] = system: ACHN
[4] = system: BT-549
[5] = system: CAKI-1
[6] = system: CCRF-CEM
[7] = system: COLO 205
[8] = system: DU-145
[9] = system: EKVX
[10] = system: HCC 2998
[11] = system: HCT-116
[12] = system: HCT-15
[13] = system: HOP-62
[14] = system: HT-29
[15] = system: Hs-578T
[16] = system: IGROV-1
[17] = system: K562
[18] = system: KM12
[19] = system: LOX IMVI
[20] = system: M14
[21] = system: MCF7
[22] = system: MDA-MB-231
[23] = system: MDA-MB-435
[24] = system: MDA-N
[25] = system: MOLT-4
[26] = system: Malme-3M
[27] = system: NCI-H226
[28] = system: NCI-H23
[29] = system: NCI-H460
[30] = system: NCI-H522
[31] = system: NCI/ADR-RES
[32] = system: OVCAR-3
[33] = system: OVCAR-4
[34] = system: OVCAR-5
[35] = system: OVCAR-8
[36] = system: PC-3
[37] = system: RPMI-8226
[38] = system: RXF 393
[39] = system: SF-268
[40] = system: SF-295
[41] = system: SF-539
[42] = system: SK-MEL-28
[43] = system: SK-MEL-2
[44] = system: SK-MEL-5
[45] = system: SK-OV-3
[46] = system: SN12C
[47] = system: SNB-19
[48] = system: SNB-75
[49] = system: SW-620
[50] = system: T47D
[51] = system: TK-10
[52] = system: U-251
[53] = system: UACC-257
[54] = system: UACC-62
[55] = system: UO-31
[56] = system: A498
[57] = system: HL-60
[58] = system: HOP-92
[59] = system: SR

Measured: GI50

Cc1ccc(-n2c(Cn3nnc(-c4cccnc4)n3)nn(C3OC(COC(=O)c4ccccc4)C(OC(=O)c4ccccc4)C3OC(=O)c3ccccc3)c2=S)cc1 (centres undefined)
inactive: [1] > 100 µM | [2] > 100 µM | [3] > 100 µM | [4] > 100 µM | [5] > 100 µM | [6] > 100 µM | [7] > 100 µM | [8] > 100 µM | [9] > 100 µM | [10] > 100 µM | [11] > 100 µM | [13] > 100 µM | [14] > 100 µM | [15] > 100 µM | [16] > 100 µM | [17] > 100 µM | [18] > 100 µM | [19] > 100 µM | [20] > 100 µM | [21] > 100 µM | [22] > 100 µM | [23] > 100 µM | [24] > 100 µM | [25] > 100 µM | [26] 38.4 µM | [27] > 100 µM | [28] > 100 µM | [29] > 100 µM | [30] > 100 µM | [31] > 100 µM | [32] > 100 µM | [33] > 100 µM | [34] > 100 µM | [35] > 100 µM | [36] > 100 µM | [37] > 100 µM | [38] > 100 µM | [39] > 100 µM | [40] > 100 µM | [41] > 100 µM | [42] > 100 µM | [43] > 100 µM | [44] > 100 µM | [45] > 100 µM | [46] > 100 µM | [47] 32.3 µM | [48] 52.6 µM | [49] > 100 µM | [50] > 100 µM | [51] > 100 µM | [52] > 100 µM | [53] > 100 µM | [54] > 100 µM | [55] > 100 µM
> 100 µM: [12]

CC1C(NNC(N)=O)Oc2cc3c(cc2C1c1ccccc1O)OCO3 (centres undefined)
inactive: [56] 25.9 µM | [2] 31.8 µM | [3] 39.5 µM | [4] 52.6 µM | [5] 29.5 µM | [6] 15.6 µM | [7] > 10 µM | [8] 49.7 µM | [9] 66.8 µM | [10] 84.3 µM | [11] 26.2 µM | [57] 14.9 µM | [13] 31.3 µM | [58] 16.5 µM | [14] 34 µM | [15] 25.3 µM | [16] 26.3 µM | [17] 22.2 µM | [18] 31.2 µM | [19] 46.7 µM | [20] 39.3 µM | [21] 36.8 µM | [22] 55.7 µM | [23] 20.5 µM | [24] 22.3 µM | [25] 30 µM | [26] 28.6 µM | [27] 34.6 µM | [28] 89.9 µM | [29] 38.8 µM | [30] 14.8 µM | [32] 33.1 µM | [34] > 100 µM | [36] 24.5 µM | [37] 21.5 µM | [38] 23.8 µM | [39] 39.6 µM | [40] 27 µM | [41] 24.2 µM | [42] 31 µM | [43] 35.6 µM | [44] 27.4 µM | [45] 41.4 µM | [46] 48.3 µM | [47] 91 µM | [48] 27.9 µM | [59] 15 µM | [49] 16.6 µM | [50] 38.6 µM | [51] 46 µM | [52] 38.7 µM | [53] 35.7 µM | [54] 30.4 µM | [55] 52.5 µM
33.6 µM: [12]

O=C(O)c1cc2ccccc2c(Cc2c(O)c(C(=O)O)cc3ccccc23)c1O [PAMOIC ACID]
inactive: [1] > 100 µM | [56] > 100 µM | [2] > 100 µM | [3] > 100 µM | [4] > 100 µM | [5] > 100 µM | [6] > 100 µM | [8] > 100 µM | [9] > 100 µM | [10] > 100 µM | [11] > 100 µM | [57] > 100 µM | [13] > 100 µM | [58] > 100 µM | [14] > 100 µM | [15] > 100 µM | [16] > 100 µM | [17] > 100 µM | [18] > 100 µM | [19] > 100 µM | [20] > 100 µM | [22] > 100 µM | [23] > 100 µM | [24] > 100 µM | [25] > 100 µM | [26] > 100 µM | [27] > 100 µM | [28] > 100 µM | [29] > 100 µM | [30] > 100 µM | [31] > 100 µM | [32] > 100 µM | [33] > 100 µM | [34] > 100 µM | [35] > 100 µM | [36] > 100 µM | [37] > 100 µM | [38] > 100 µM | [39] > 100 µM | [40] > 100 µM | [42] > 100 µM | [43] > 100 µM | [44] > 100 µM | [46] > 100 µM | [47] > 100 µM | [59] > 100 µM | [49] > 100 µM | [50] > 100 µM | [51] > 100 µM | [52] > 100 µM | [53] > 100 µM | [54] > 100 µM | [55] > 100 µM
> 100 µM: [12]

Source: ChEMBL document CHEMBL1201862, “PubChem BioAssay data set” (2004)
